Experimental data reported in US9211310B2, “Use of a Chinese medicine composition in preparing medicaments for treating secondary prevention of myocardial infarction” (TASLY PHARMACEUTICAL GROUP CO., LTD, priority 2010, dated 2015).

Tested on: patients after acute myocardial infarction
Test: Life quality, Seattle Angina Questionnaire (SAQ), same clinical trial
Assay type: in vivo, human
Source text: 3508 patients who were in accordance with the diagnostic standards of AMI for 28 days to 2 years and differentiated as Qi deficiency and blood stagnation syndrome by TCM were studied. 0.5 g Chinese medicine composition prepared by the method of EXAMPLE 1 (Coded as QSYQ) was administrated half an hour after meal, 3 times per day.
There were 19 questions in the Seattle angina questionnaire (SAQ), including 5 parts: physical limitation (PL), anginal stability (AS), anginal frequency (AF), treatment satisfaction (TS) and disease perception (DP). After being given necessary explanation by doctors, the questions were answered independently by patients.
They included the overall survival time, angina pectoris score, TCM symptom score and life quality score, where angina pectoris score, TCM symptom score and life quality score were evaluated at randomization, in 1st, 3rd, 6th, 9th, 12th month after treatment and 18th month after follow-up.
All evaluation results of SAQ were described during the period of observation, and Wilcoxon rank sum test was used for inter-group comparison.
The evaluation results in the SAQ were depicted in different observations, and inter-group comparison was tested by Wilcoxon Rank-sum test.

Structure (SMILES): CC(=O)Oc1ccccc1C(=O)O [Control group, aspirine]
- SAQ 2nd question: Slightly increased, cases (1 month after treatment, PP): 43
- SAQ 2nd question: Slightly reduced, % of cases (1 month after treatment, PP): (30.18%)
- SAQ 2nd question: Slightly reduced, cases (1 month after treatment, PP): 447
- SAQ 3rd question: 1-2 times per week, % of cases (1 month after treatment, PP): (30.18%)
- SAQ 3rd question: 1-2 times per week, cases (1 month after treatment, PP): 447
- SAQ 3rd question: 1-3 times per day, % of cases (1 month after treatment, PP): (2.90%)
- SAQ 3rd question: 1-3 times per day, cases (1 month after treatment, PP): 43
- SAQ 3rd question: <1 time per week, % of cases (1 month after treatment, PP): (16.75%)
- SAQ 3rd question: <1 time per week, cases (1 month after treatment, PP): 248
- SAQ 3rd question: No onset, % of cases (1 month after treatment, PP): (0.00%)
- SAQ 3rd question: No onset, cases (1 month after treatment, PP): 0
- SAQ 3rd question: ≧3 times per week, % of cases (1 month after treatment, PP): (49.63%)
- SAQ 3rd question: ≧3 times per week, cases (1 month after treatment, PP): 735
- SAQ 3rd question: ≧4 times per day, % of cases (1 month after treatment, PP): (0.54%)
- SAQ 3rd question: ≧4 times per day, cases (1 month after treatment, PP): 8
- SAQ Question 1-3: Mildly limited, number of patients (1 month after treatment, PP): 114
- SAQ Question 1-3: Mildly limited, percent of patients (1 month after treatment, PP): (7.67%)
- SAQ Question 1-3: Moderately limited, number of patients (1 month after treatment, PP): 25
- SAQ Question 1-3: Moderately limited, percent of patients (1 month after treatment, PP): (1.68%)
- SAQ Question 1-3: Not limited, number of patients (1 month after treatment, PP): 1064
- SAQ Question 1-3: Not limited, percent of patients (1 month after treatment, PP): (71.60%)
- SAQ Question 1-3: Other reasons, number of patients (1 month after treatment, PP): 7
- SAQ Question 1-3: Other reasons, percent of patients (1 month after treatment, PP): (0.47%)
- SAQ Question 1-3: Severely limited, number of patients (1 month after treatment, PP): 5
- SAQ Question 1-3: Severely limited, percent of patients (1 month after treatment, PP): (0.34%)
- SAQ Question 1-3: Slightly limited, number of patients (1 month after treatment, PP): 271
- SAQ Question 1-3: Slightly limited, percent of patients (1 month after treatment, PP): (18.24%)
- SAQ Question 1-4: Mildly limited, number of patients (1 month after treatment, PP): 303
- SAQ Question 1-4: Mildly limited, percent of patients (1 month after treatment, PP): (20.43%)
- SAQ Question 1-4: Moderately limited, number of patients (1 month after treatment, PP): 138
- SAQ Question 1-4: Moderately limited, percent of patients (1 month after treatment, PP): (9.31%)
- SAQ Question 1-4: Not limited, number of patients (1 month after treatment, PP): 521
- SAQ Question 1-4: Not limited, percent of patients (1 month after treatment, PP): (35.13%)
- SAQ Question 1-4: Other reasons, number of patients (1 month after treatment, PP): 11
- SAQ Question 1-4: Other reasons, percent of patients (1 month after treatment, PP): (0.74%)
- SAQ Question 1-4: Severely limited, number of patients (1 month after treatment, PP): 27
- SAQ Question 1-4: Severely limited, percent of patients (1 month after treatment, PP): (1.82%)
- SAQ Question 1-4: Slightly limited, number of patients (1 month after treatment, PP): 483
- SAQ Question 1-4: Slightly limited, percent of patients (1 month after treatment, PP): (32.57%)
- SAQ Question 1-5: Mildly limited, number of patients (1 month after treatment, PP): 278
- SAQ Question 1-5: Mildly limited, percent of patients (1 month after treatment, PP): (18.76%)
- SAQ Question 1-5: Moderately limited, number of patients (1 month after treatment, PP): 166
- SAQ Question 1-5: Moderately limited, percent of patients (1 month after treatment, PP): (11.20%)
- SAQ Question 1-5: Not limited, number of patients (1 month after treatment, PP): 546
- SAQ Question 1-5: Not limited, percent of patients (1 month after treatment, PP): (36.84%)
- SAQ Question 1-5: Other reasons, number of patients (1 month after treatment, PP): 9
- SAQ Question 1-5: Other reasons, percent of patients (1 month after treatment, PP): (0.61%)
- SAQ Question 1-5: Severely limited, number of patients (1 month after treatment, PP): 24
- SAQ Question 1-5: Severely limited, percent of patients (1 month after treatment, PP): (1.62%)
- SAQ Question 1-5: Slightly limited, number of patients (1 month after treatment, PP): 459
- SAQ Question 1-5: Slightly limited, percent of patients (1 month after treatment, PP): (30.97%)
- SAQ Question 1-9: Mildly limited, % of cases (1 month after treatment, PP): (16.54%)
- SAQ Question 1-9: Mildly limited, cases (1 month after treatment, PP): 239
- SAQ Question 1-9: Moderately limited, % of cases (1 month after treatment, PP): (21.45%)
- SAQ Question 1-9: Moderately limited, cases (1 month after treatment, PP): 310
- SAQ Question 1-9: Not limited, % of cases (1 month after treatment, PP): (2.98%)
- SAQ Question 1-9: Not limited, cases (1 month after treatment, PP): 43
- SAQ Question 1-9: Other reasons, % of cases (1 month after treatment, PP): (6.44%)
- SAQ Question 1-9: Other reasons, cases (1 month after treatment, PP): 93
- SAQ Question 1-9: Severely limited, % of cases (1 month after treatment, PP): (42.70%)
- SAQ Question 1-9: Severely limited, cases (1 month after treatment, PP): 617
- SAQ Question 1-9: Slightly limited, % of cases (1 month after treatment, PP): (9.90%)
- SAQ Question 1-9: Slightly limited, cases (1 month after treatment, PP): 143
- SAQ 2nd question: Clearly increased, % of cases (3 months after treatment, FAS): (0.92%)
- SAQ 2nd question: Clearly increased, cases (3 months after treatment, FAS): 16
- SAQ 2nd question: Clearly reduced, % of cases (3 months after treatment, FAS): (21.15%)
- SAQ 2nd question: Clearly reduced, cases (3 months after treatment, FAS): 368
- SAQ 2nd question: Same, % of cases (3 months after treatment, FAS): (42.13%)
- SAQ 2nd question: Same, cases (3 months after treatment, FAS): 733
- SAQ 2nd question: Slightly increased, % of cases (3 months after treatment, FAS): (3.79%)
- SAQ 2nd question: Slightly increased, cases (3 months after treatment, FAS): 66
- SAQ 2nd question: Slightly reduced, % of cases (3 months after treatment, FAS): (32.01%)
- SAQ 2nd question: Slightly reduced, cases (3 months after treatment, FAS): 557
- SAQ 3rd question: 1-2 times per week, % of cases (3 months after treatment, FAS): (32.01%)
- SAQ 3rd question: 1-2 times per week, cases (3 months after treatment, FAS): 557
- SAQ 3rd question: 1-3 times per day, % of cases (3 months after treatment, FAS): (3.79%)
- SAQ 3rd question: 1-3 times per day, cases (3 months after treatment, FAS): 66
